Results taken from patent US4783401A (priority 1986, dated 1988).

Assays:
V79 cells [1] = system: V79 cells
V79 cells [2] = system: V79 cells; remark: listed apart in the source
rabbit red cells = conditions: in vivo
cells = conditions: cited from earlier work

For `O=S(=O)(O)CCCNC1CCCCC1` [CAPS, 3-(Cyclohexylamino)-1-propanesulfonic acid], the “effect on cell doubling time compared to phosphate buffered saline” value (“effect … compared to phosphate buffered saline” for short) (Yac cells) was “negligable effects on cell doubling time”.

For `O=S(=O)(O)CC(O)CN(CCO)CCO` (stereo not drawn) [DIPSO, 3-[N--N--bis(2-hydroxyethyl)amino]-2-hydroxypropane-sulfonic acid], the “effect … compared to phosphate buffered saline” value (Yac cells) was “negligable effects on cell doubling time”.

With `CCCCCCCCCCCCCCN1C(=CC=Cc2oc3ccccc3[n+]2CCCCCCCCCCCCCC)Oc2ccccc21` [DiOC14 (3)] the “Cell doubling time of stained cells” value (V79 cells [1]) was “unaffected”, the “Effect on cell viability, Propidium Iodide exclusion” value (V79 cells [2]) was “absence of effect on cell viability” and the “Effect on cell viability, Trypan Blue Exclusion” value (V79 cells [2]) was “absence of effect on cell viability”.

In the case of `CCCCCCCCCCCCCCN1C(=CC=CC=Cc2sc3ccccc3[n+]2CCCCCCCCCCCCCC)Sc2ccccc21` [DiSC14 (5)], the “effect on clearance rate of red blood cells” value (rabbit red cells) was “did not affect the clearance rate of red blood cells” and the “lifetime of labelled red cells in circulation” value (rabbit red cells) was 52 days.

With `O=S(=O)(O)CCCN1CCN(CCO)CC1` [EPPS, N--(2-Hydroxyethyl)piperazine-N'--3-propanesulfonic acid] the “effect … compared to phosphate buffered saline” value (Yac cells) was “negligable effects on cell doubling time”.

For `O=C[C@H](O)[C@@H](O)[C@H](O)[C@H](O)CO` [Glucose], the “effect … compared to phosphate buffered saline” value (Yac cells) was “negligable effects on cell doubling time”.

In the case of `O=S(=O)(O)CC(O)CN1CCN(CCO)CC1` (stereo not drawn) [HEPPSO, N--2-hydroxyethylpiperazine-N'--2-hydroxypropane-sulfonic acid], the “effect … compared to phosphate buffered saline” value (Yac cells) was “negligable effects on cell doubling time”.

In the case of `OC[C@H]1O[C@@](CO)(O[C@H]2O[C@H](CO)[C@@H](O)[C@H](O)[C@H]2O)[C@@H](O)[C@@H]1O` [Sucrose], the “Doubling Time” value (Yac cells) was 41.0 h and the “effect … compared to phosphate buffered saline” value (Yac cells) was “negligable effects on cell doubling time”.

With `O=S(=O)(O)CCCNC(CO)(CO)CO` [TAPS, Tris(hydroxymethyl)-methylaminopropane sulfonic acid] the “effect … compared to phosphate buffered saline” value (Yac cells) was “negligable effects on cell doubling time”.

In the case of `CCCCN1C(=O)C(=CC=CC=C2Oc3ccccc3N2CCCS(=O)(=O)O)C(=O)N(CCCC)C1=S` [merocyanine 540], the cytotoxicity (cells) is given as “cytotoxic when the cell is exposed to light”.

For Phosphate Buffered Saline, the “Doubling Time” value (Yac cells) was 31.0 h.
